Experimental data from BindingDB's records for doi:10.1021/acs.jmedchem.6b01363 (Genentech, 2017).
pIC50: −log10 of the molar value.

Each compound was assayed against Transcription factor p65 (Human, UniProt Q04206) (assay: Inhibition of TNF-alpha-stimulated RELA translocation from cytoplasm to nucleus in human HeLa cells preincubated for 4.5 hrs followed by TNF-alpha stimulation measured after 30 mins).
Chain of Transcription factor p65 (Q04206 whole entry): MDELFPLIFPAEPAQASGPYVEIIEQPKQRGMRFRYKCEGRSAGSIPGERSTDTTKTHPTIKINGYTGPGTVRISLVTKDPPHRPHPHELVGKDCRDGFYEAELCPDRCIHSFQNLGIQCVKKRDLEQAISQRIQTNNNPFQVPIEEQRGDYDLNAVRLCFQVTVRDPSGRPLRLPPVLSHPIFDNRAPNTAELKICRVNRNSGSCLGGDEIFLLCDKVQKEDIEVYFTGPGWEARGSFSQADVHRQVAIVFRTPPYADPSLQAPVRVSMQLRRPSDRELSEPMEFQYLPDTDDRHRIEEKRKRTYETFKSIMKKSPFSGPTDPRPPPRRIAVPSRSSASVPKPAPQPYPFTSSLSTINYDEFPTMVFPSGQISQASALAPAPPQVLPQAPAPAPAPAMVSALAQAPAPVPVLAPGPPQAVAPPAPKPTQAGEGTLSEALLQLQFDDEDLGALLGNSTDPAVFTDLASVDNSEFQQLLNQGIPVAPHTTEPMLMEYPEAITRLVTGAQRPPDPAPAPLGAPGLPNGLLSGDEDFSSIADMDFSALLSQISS

| pIC50 | Structure (SMILES) |
| --- | --- |
| < 4.70 | Cc1cc([C@](C)(O)C#Cc2cc3c(cc2F)OCCn2cc(C(N)=O)nc2-3)no1 [US9034866, 6] |
| < 4.70 | CNC(=O)c1c(C(N)=O)nc2n1CCOc1ccc(C#C[C@@](C)(O)c3cc(C)on3)cc1-2 [US9034866, 96] |
| < 4.70 | Cc1cc([C@](C)(O)C#Cc2cc3c(cc2F)C2CC(C2)n2cc(C(N)=O)nc2-3)no1 [US9034866, 129] |
